Reference: ChEMBL document CHEMBL1201862, “PubChem BioAssay data set” (2004)
Counter-ions that a name gives are not always drawn.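 Assay format: 96-well plates, 48-hour exposure. GI50 = concentration required for 50% inhibition of growth.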 Calls of active or inactive are those of the source. Rule as the data show it: active = GI50 up to about 1.1 µM and inactive = higher.

Key:
Test in all cases: NCI anticancer screen, dose series, 48 h
786-0 = tested on: 786-0
A549 = tested on: A549
ACHN = tested on: ACHN
BT-549 = tested on: BT-549
CAKI-1 = tested on: CAKI-1
CCRF-CEM = tested on: CCRF-CEM
COLO 205 = tested on: COLO 205
DU-145 = tested on: DU-145
EKVX = tested on: EKVX
HCC 2998 = tested on: HCC 2998
HCT-116 = tested on: HCT-116
HCT-15 = tested on: HCT-15
HL-60 = tested on: HL-60
HOP-62 = tested on: HOP-62
HOP-92 = tested on: HOP-92
HT-29 = tested on: HT-29
IGROV-1 = tested on: IGROV-1
K562 = tested on: K562
KM12 = tested on: KM12
M14 = tested on: M14
MCF7 = tested on: MCF7
MDA-N = tested on: MDA-N
MOLT-4 = tested on: MOLT-4
Malme-3M = tested on: Malme-3M
NCI-H226 = tested on: NCI-H226
NCI-H23 = tested on: NCI-H23
NCI-H460 = tested on: NCI-H460
NCI-H522 = tested on: NCI-H522
NCI/ADR-RES = tested on: NCI/ADR-RES
OVCAR-3 = tested on: OVCAR-3
OVCAR-4 = tested on: OVCAR-4
OVCAR-5 = tested on: OVCAR-5
OVCAR-8 = tested on: OVCAR-8
PC-3 = tested on: PC-3
RPMI-8226 = tested on: RPMI-8226
RXF 393 = tested on: RXF 393
SF-268 = tested on: SF-268
SF-295 = tested on: SF-295
SF-539 = tested on: SF-539
SK-MEL-28 = tested on: SK-MEL-28
SK-MEL-5 = tested on: SK-MEL-5
SK-OV-3 = tested on: SK-OV-3
SN12C = tested on: SN12C
SNB-19 = tested on: SNB-19
SNB-75 = tested on: SNB-75
SR = tested on: SR
SW-620 = tested on: SW-620
TK-10 = tested on: TK-10
U-251 = tested on: U-251
UACC-257 = tested on: UACC-257
UACC-62 = tested on: UACC-62
UO-31 = tested on: UO-31
A498 = tested on: A498
Hs-578T = tested on: Hs-578T
LOX IMVI = tested on: LOX IMVI
MDA-MB-435 = tested on: MDA-MB-435

## CCN(CC)CCn1c(C(C)(C)C)nc2ccccc21
786-0
  GI50: 18.7 µM (inactive)
A549
  GI50: > 100 µM (inactive)
ACHN
  GI50: > 100 µM (inactive)
BT-549
  GI50: 36.1 µM (inactive)
CAKI-1
  GI50: > 100 µM (inactive)
CCRF-CEM
  GI50: > 100 µM (inactive)
COLO 205
  GI50: > 100 µM (inactive)
DU-145
  GI50: > 100 µM (inactive)
EKVX
  GI50: > 100 µM (inactive)
HCC 2998
  GI50: > 100 µM (inactive)
HCT-116
  GI50: > 100 µM (inactive)
HCT-15
  GI50: > 100 µM
HL-60
  GI50: > 100 µM (inactive)
HOP-62
  GI50: > 100 µM (inactive)
HOP-92
  GI50: > 100 µM (inactive)
HT-29
  GI50: > 100 µM (inactive)
IGROV-1
  GI50: > 100 µM (inactive)
K562
  GI50: > 100 µM (inactive)
KM12
  GI50: > 100 µM (inactive)
M14
  GI50: > 100 µM (inactive)
MCF7
  GI50: > 100 µM (inactive)
MDA-N
  GI50: > 100 µM (inactive)
MOLT-4
  GI50: > 100 µM (inactive)
Malme-3M
  GI50: > 100 µM (inactive)
NCI-H226
  GI50: > 100 µM (inactive)
NCI-H23
  GI50: > 100 µM (inactive)
NCI-H460
  GI50: > 100 µM (inactive)
NCI-H522
  GI50: 38.6 µM (inactive)
NCI/ADR-RES
  GI50: > 100 µM (inactive)
OVCAR-3
  GI50: > 100 µM (inactive)
OVCAR-4
  GI50: > 100 µM (inactive)
OVCAR-5
  GI50: > 100 µM (inactive)
OVCAR-8
  GI50: > 100 µM (inactive)
PC-3
  GI50: > 100 µM (inactive)
RPMI-8226
  GI50: > 100 µM (inactive)
RXF 393
  GI50: > 100 µM (inactive)
SF-268
  GI50: > 100 µM (inactive)
SF-295
  GI50: > 100 µM (inactive)
SF-539
  GI50: > 100 µM (inactive)
SK-MEL-28
  GI50: > 100 µM (inactive)
SK-MEL-5
  GI50: > 10 µM (inactive)
SK-OV-3
  GI50: > 100 µM (inactive)
SN12C
  GI50: > 100 µM (inactive)
SNB-19
  GI50: > 100 µM (inactive)
SNB-75
  GI50: > 100 µM (inactive)
SR
  GI50: > 100 µM (inactive)
SW-620
  GI50: > 100 µM (inactive)
TK-10
  GI50: > 100 µM (inactive)
U-251
  GI50: 30.7 µM (inactive)
UACC-257
  GI50: > 100 µM (inactive)
UACC-62
  GI50: > 100 µM (inactive)
UO-31
  GI50: > 100 µM (inactive)

## CCOC(=O)c1c(-c2ccc(OC)c(O)c2)c(C#N)c(=S)n(C2OC(CO)C(O)C(O)C2O)c1-c1ccccc1 (stereo not drawn)
786-0
  GI50: > 100 µM (inactive)
A498
  GI50: > 100 µM (inactive)
A549
  GI50: > 100 µM (inactive)
ACHN
  GI50: > 100 µM (inactive)
CAKI-1
  GI50: > 100 µM (inactive)
CCRF-CEM
  GI50: > 100 µM (inactive)
COLO 205
  GI50: > 100 µM (inactive)
DU-145
  GI50: > 100 µM (inactive)
EKVX
  GI50: 1.6 µM (inactive)
HCC 2998
  GI50: > 100 µM (inactive)
HCT-116
  GI50: > 100 µM (inactive)
HCT-15
  GI50: > 100 µM
HOP-62
  GI50: > 100 µM (inactive)
HT-29
  GI50: > 100 µM (inactive)
Hs-578T
  GI50: > 100 µM (inactive)
IGROV-1
  GI50: > 100 µM (inactive)
K562
  GI50: > 100 µM (inactive)
KM12
  GI50: > 100 µM (inactive)
LOX IMVI
  GI50: > 100 µM (inactive)
M14
  GI50: > 100 µM (inactive)
MDA-MB-435
  GI50: > 100 µM (inactive)
MDA-N
  GI50: > 100 µM (inactive)
MOLT-4
  GI50: > 100 µM (inactive)
NCI-H226
  GI50: > 100 µM (inactive)
NCI-H23
  GI50: > 100 µM (inactive)
NCI-H460
  GI50: > 100 µM (inactive)
NCI/ADR-RES
  GI50: > 100 µM (inactive)
OVCAR-4
  GI50: > 100 µM (inactive)
PC-3
  GI50: > 100 µM (inactive)
RPMI-8226
  GI50: > 100 µM (inactive)
RXF 393
  GI50: > 100 µM (inactive)
SF-268
  GI50: > 100 µM (inactive)
SF-295
  GI50: > 100 µM (inactive)
SK-MEL-28
  GI50: > 100 µM (inactive)
SK-MEL-5
  GI50: > 100 µM (inactive)
SN12C
  GI50: > 100 µM (inactive)
SNB-19
  GI50: > 100 µM (inactive)
SR
  GI50: > 100 µM (inactive)
SW-620
  GI50: > 100 µM (inactive)
U-251
  GI50: > 100 µM (inactive)
UACC-257
  GI50: > 100 µM (inactive)
UACC-62
  GI50: > 100 µM (inactive)
UO-31
  GI50: > 100 µM (inactive)

## Cn1c2nc3ccccc3c-2cc2ccccc21 [NEOCRYPTOLEPINE HYDROCHLORIDE]
CCRF-CEM
  GI50: 4.4 µM (inactive)
COLO 205
  GI50: 2.76 µM (inactive)
DU-145
  GI50: 12.8 µM (inactive)
EKVX
  GI50: 3.98 µM (inactive)
HL-60
  GI50: 3.62 µM (inactive)
HT-29
  GI50: 4.69 µM (inactive)
IGROV-1
  GI50: 4.6 µM (inactive)
K562
  GI50: 4.3 µM (inactive)
LOX IMVI
  GI50: 5.07 µM (inactive)
MCF7
  GI50: 3.21 µM (inactive)
MDA-MB-435
  GI50: 5.65 µM (inactive)
NCI-H460
  GI50: 3.29 µM (inactive)
OVCAR-3
  GI50: 6.4 µM (inactive)
PC-3
  GI50: 5.45 µM (inactive)
SF-295
  GI50: 6.34 µM (inactive)
SF-539
  GI50: 5.74 µM (inactive)
SR
  GI50: 2.93 µM (inactive)
SW-620
  GI50: 5.79 µM (inactive)
